Experimental data taken from patent US9636336B2, “Aminoester derivatives” (CHIESI FARMACEUTICI S.p.A., priority 2015, dated 2017).

These compounds were tested against Human M3 receptor membranes (Homo sapiens (Human), UniProt P20309) (assay: M3 Receptor radioligand binding assay). Conditions: M3 Receptor radioligand binding assay; read-out: M3 IC50 activity.
Protocol: M3 Receptor Radioligand Binding Assay:
The assay is carried out in 96-well polypropylene plates in a volume of 250 μl. […] The final assay concentration of DMSO is 0.5% (v/v). The plates are sealed and incubated for 2 h at room temperature on an orbital shaker (slow speed). Membranes are harvested onto 96-well unifilter GF/C filter plates pre-treated with 0.5% polyethyleneimine (v/v), using a filter manifold, washed four times with 200 μl of assay buffer. The plates are dried before addition of 50 μl of microscint-0, sealed then read in a Trilux Microbeta scintillation counter. IC50 values are determined from competition curves using a non-linear curve fitting program. Ki values are calculated from IC50 values by the Cheng and Prusoff equation.

Chain of Human M3 receptor membranes (P20309 whole entry): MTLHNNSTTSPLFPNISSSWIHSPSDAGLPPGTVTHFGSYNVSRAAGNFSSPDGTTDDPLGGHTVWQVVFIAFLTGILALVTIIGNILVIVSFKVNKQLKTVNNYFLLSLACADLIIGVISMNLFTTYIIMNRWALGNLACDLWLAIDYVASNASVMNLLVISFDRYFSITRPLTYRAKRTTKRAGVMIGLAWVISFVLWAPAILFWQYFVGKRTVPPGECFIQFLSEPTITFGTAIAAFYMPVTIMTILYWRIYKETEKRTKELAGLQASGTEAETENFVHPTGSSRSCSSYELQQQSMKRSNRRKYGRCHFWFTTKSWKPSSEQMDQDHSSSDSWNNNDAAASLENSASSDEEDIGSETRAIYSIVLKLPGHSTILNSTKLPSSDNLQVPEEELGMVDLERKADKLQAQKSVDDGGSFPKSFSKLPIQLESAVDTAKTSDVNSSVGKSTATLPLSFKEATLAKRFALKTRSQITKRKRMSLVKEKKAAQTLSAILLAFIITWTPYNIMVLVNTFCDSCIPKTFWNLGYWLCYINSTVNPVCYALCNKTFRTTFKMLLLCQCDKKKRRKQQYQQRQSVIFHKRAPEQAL

COc1ccc(C(Cc2c(Cl)c[n+]([O-])cc2Cl)OC(=O)c2ccc(CNC(C(=O)OCC3CCN(C)CC3)c3ccccc3)s2)cc1OC1CCCC1 (stereo not shown) [Example 6, [1-[3-(cyclopentoxy)-4-methoxy-phenyl]-2-(3,5-dichloro-1-oxido-pyridin-1-ium-4-yl)ethyl] 5-[[[2-[(1-methyl-4-piperidyl)methoxy]-2-oxo-1-phenyl-ethyl]amino]methyl]thiophene-2-carboxylate] and COc1ccc([C@H](Cc2c(Cl)c[n+]([O-])cc2Cl)OC(=O)c2ccc(CNC(C(=O)OC[C@H]3CCCN(C)C3)c3ccccc3)s2)cc1OC (stereo partly drawn) [Example 26, [(1S)-2-(3,5-dichloro-1-oxido-pyridin-1-ium-4-yl)-1-(3,4-dimethoxyphenyl)ethyl] 5-[[[2-[[(3S)-1-methyl-3-piperidyl]methoxy]-2-oxo-1-phenyl-ethyl]amino]methyl]thiophene-2-carboxylate] fall in the same range of IC50: 1 to 10 nM for the first, 1 to 10 nM for the second.

Compared with COc1ccc([C@H](Cc2c(Cl)c[n+]([O-])cc2Cl)OC(=O)c2ccc(CNC(C(=O)OC[C@H]3CCCCN3C)c3ccccc3)s2)cc1OC (stereo partly drawn) [Example 30, [(1S)-2-(3,5-dichloro-1-oxido-pyridin-1-ium-4-yl)-1-(3,4-dimethoxyphenyl)ethyl] 5-[[[2-[[(2R)-1-methyl-2-piperidyl]methoxy]-2-oxo-1-phenyl-ethyl]amino]methyl]thiophene-2-carboxylate], COc1ccc([C@H](Cc2c(Cl)c[n+]([O-])cc2Cl)OC(=O)c2ccc(CNC(C(=O)OC[C@@H]3CCCN(C)C3)c3ccccc3)s2)cc1OC (stereo partly drawn) [Example 50, [(1S)-2-(3,5-dichloro-1-oxido-pyridin-1-ium-4-yl)-1-(3,4-dimethoxyphenyl)ethyl]5-[[[2-[[(3R)-1-methyl-3-piperidyl]methoxy]-2-oxo-1-phenyl-ethyl]amino]methyl]thiophene-2-carboxylate] is lower in IC50: 10 to 100 nM for the first, 1 to 10 nM for the second. The second is the more potent here.

COc1ccc([C@H](Cc2c(Cl)c[n+]([O-])cc2Cl)OC(=O)c2ccc(CNC(C)(C(=O)OCC3CCN(C)CC3)c3ccccc3)s2)cc1OC (stereo partly drawn) [Example 34, [(1S)-2-(3,5-dichloro-1-oxido-pyridin-1-ium-4-yl)-1-(3,4-dimethoxyphenyl)ethyl] 5-[[[1-methyl-2-[(1-methyl-4-piperidyl)methoxy]-2-oxo-1-phenyl-ethyl]amino]methyl]thiophene-2-carboxylate] and COc1ccc([C@H](Cc2c(Cl)c[n+]([O-])cc2Cl)OC(=O)c2ccc(CNC(C(=O)OCC3CCN(C)CC3)c3cccc(O)c3)s2)cc1OC (stereo partly drawn) [Example 41, [(1S)-2-(3,5-dichloro-1-oxido-pyridin-1-ium-4-yl)-1-(3,4-dimethoxyphenyl)ethyl]5-[[[1-(3-hydroxyphenyl)-2-[(1-methyl-4-piperidyl)methoxy]-2-oxo-ethyl]amino]methyl]thiophene-2-carboxylate] fall in the same range of IC50: 1 to 10 nM for the first, 1 to 10 nM for the second.

In the case of COc1ccc(C(Cc2c(Cl)c[n+]([O-])cc2Cl)OC(=O)c2ccc(CNC(C(=O)OCC3CCN(C)CC3)c3cccc(O)c3)s2)cc1OCC1CC1 (stereo not shown) [Example 48, [1-[3-(cyclopropylmethoxy)-4-methoxy-phenyl]-2-(3,5-dichloro-1-oxido-pyridin-1-ium-4-yl)ethyl]5-[[[1-(3-hydroxyphenyl)-2-[(1-methyl-4-piperidyl)methoxy]-2-oxo-ethyl]amino]methyl]thiophene-2-carboxylate], the IC50 is reported as 10 to 100 nM.
